Results taken from patent publication US10118902B2 (Sanford Burnham Prebys Medical Discovery Institute, priority 2014, dated 2018).

target: neurotensin receptor 1 (NTR1) (Homo sapiens (Human), UniProt P30989); assay: NTR1 dose response, high-content imaging beta-arrestin-GFP assay in NTR1-U2OS cells; type: cell-based; conditions: read-out: EC50
Sequence (P30989 whole entry, species assumed): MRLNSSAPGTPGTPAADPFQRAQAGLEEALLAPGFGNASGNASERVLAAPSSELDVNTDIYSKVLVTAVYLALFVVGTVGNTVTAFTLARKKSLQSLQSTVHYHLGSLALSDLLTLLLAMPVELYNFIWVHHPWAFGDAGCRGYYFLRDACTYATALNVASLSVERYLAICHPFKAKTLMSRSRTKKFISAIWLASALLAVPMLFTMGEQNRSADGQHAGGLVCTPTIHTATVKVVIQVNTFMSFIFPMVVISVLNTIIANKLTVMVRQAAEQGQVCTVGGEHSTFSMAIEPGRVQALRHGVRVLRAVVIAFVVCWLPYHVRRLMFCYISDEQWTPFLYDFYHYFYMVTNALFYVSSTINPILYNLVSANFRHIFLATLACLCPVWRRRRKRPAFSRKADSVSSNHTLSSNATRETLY

Row | Compound | EC50 [µM]
1 | COc1ccccc1C1CCN(c2nc(C3(F)CCC3)nc3cnc(N(C)CCO)cc23)CC1 [Example 198, 2-({2-(1-Fluoro-cyclobutyl)-4-[4-(2-methoxy-phenyl)-piperidin-1-yl]-pyrido[3,4-d]pyrimidin-6-yl}-methyl-amino)-ethanol] | 2 to 10
2 | COc1ccccc1C1CCN(c2nc(C3(F)CCC3)nc3cnc(N4CC[C@@H](O)C4)cc23)CC1 [Example 199, 1-{2-(1-Fluoro-cyclobutyl)-4-[4-(2-methoxy-phenyl)-piperidin-1-yl]-pyrido[3,4-d]pyrimidin-6-yl}-pyrrolidin-3-ol] | 2 to 10
3 | COc1ccccc1C1CCN(c2nc(C3(F)CCC3)nc3cnc(N4CC[C@H](O)C4)cc23)CC1 [Example 200, 1-{2-(1-Fluoro-cyclobutyl)-4-[4-(2-methoxy-phenyl)-piperidin-1-yl]-pyrido[3,4-d]pyrimidin-6-yl}-pyrrolidin-3-ol] | 2 to 10
4 | COc1ccccc1C1CCN(c2nc(C3(F)CC3)nc3c(Cl)cc(N(C)CCO)cc23)CC1 [Example 201, 2-({8-Chloro-2-(1-fluoro-cyclopropyl)-4-[4-(2-methoxy-phenyl)-piperidin-1-yl]-quinazolin-6-yl}-methyl-amino)-ethanol] | < 0.5
5 | COc1nccnc1C1CCN(c2nc(C3(C)CC3)nc3c(F)cc(N(C)CCO)cc23)CC1 [Example 204, 2-{[8-Fluoro-4-[4-(3-methoxy-pyrazin-2-yl)-piperidin-1-yl]-2-(1-methyl-cyclopropyl)-quinazolin-6-yl]-methyl-amino}-ethanol] | 0.5 to 2
6 | COc1nccnc1C1CCN(c2nc(C3(C)CC3)nc3ccc(N(C)CCO)cc23)CC1 [Example 205, 2-{[4-[4-(3-Methoxy-pyrazin-2-yl)-piperidin-1-yl]-2-(1-methyl-cyclopropyl)-quinazolin-6-yl]-methyl-amino}-ethanol] | 0.5 to 2
7 | COc1cccnc1C1CCN(c2nc(C3(F)CC3)nc3ccc(N(C)CCO)cc23)CC1 [Example 206, 2-{[2-(1-Fluoro-cyclopropyl)-4-(3-methoxy-3′,4′,5′,6′-tetrahydro-2′H-[2,4′]bipyridinyl-1′-yl)-quinazolin-6-yl]-methyl-amino}-ethanol] | 0.5 to 2
8 | COc1ncccc1C1CCN(c2nc(C3(F)CC3)nc3ccc(N(C)CCO)cc23)CC1 [Example 207, 2-{[2-(1-Fluoro-cyclopropyl)-4-(2-methoxy-3′,4′,5′,6′-tetrahydro-2′H-[3,4′]bipyridinyl-1′-yl)-quinazolin-6-yl]-methyl-amino}-ethanol] | 0.5 to 2
9 | COc1nccnc1C1CCN(c2nc(C3(F)CC3)nc3ccc(N(C)CCO)cc23)CC1 [Example 208, 2-({2-(1-Fluoro-cyclopropyl)-4-[4-(3-methoxy-pyrazin-2-yl)-piperidin-1-yl]-quinazolin-6-yl}-methyl-amino)-ethanol] | 0.5 to 2
10 | COc1cccnc1N1CCN(c2nc(C3(F)CC3)nc3ccc(N(C)CCO)cc23)CC1 [Example 209, 2-({2-(1-Fluoro-cyclopropyl)-4-[4-(3-methoxy-pyridin-2-yl)-piperazin-1-yl]-quinazolin-6-yl}-methyl-amino)-ethanol] | 2 to 10
11 | COc1ccncc1C1CCN(c2nc(C3(F)CC3)nc3ccc(N(C)CCO)cc23)CC1 [Example 210, 2-{[2-(1-Fluoro-cyclopropyl)-4-(4-methoxy-3′,4′,5′,6′-tetrahydro-2′H-[3,4′]bipyridinyl-1′-yl)-quinazolin-6-yl]-methyl-amino}-ethanol] | 2 to 10
12 | COc1cncnc1C1CCN(c2nc(C3(F)CC3)nc3ccc(N(C)CCO)cc23)CC1 [Example 211, 2-({2-(1-Fluoro-cyclopropyl)-4-[4-(5-methoxy-pyrimidin-4-yl)-piperidin-1-yl]-quinazolin-6-yl}-methyl-amino)-ethanol] | > 10
13 | COc1cnccc1C1CCN(c2nc(C3(F)CC3)nc3ccc(N(C)CCO)cc23)CC1 [Example 212, 2-{[2-(1-Fluoro-cyclopropyl)-4-(3′-methoxy-3,4,5,6-tetrahydro-2H-[4,4′]bipyridinyl-1-yl)-quinazolin-6-yl]-methyl-amino}-ethanol] | > 10
14 | COc1nccnc1C1CCN(c2nc(C3(F)CC3)nc3c(F)cc(N(C)CCO)cc23)CC1 [Example 213, 2-({8-Fluoro-2-(1-fluoro-cyclopropyl)-4-[4-(3-methoxy-pyrazin-2-yl)-piperidin-1-yl]-quinazolin-6-yl}-methyl-amino)-ethanol] | 0.5 to 2
15 | COc1ncccc1C1CCN(c2nc(C3(F)CC3)nc3c(F)cc(N(C)CCO)cc23)CC1 [Example 214, 2-{[8-Fluoro-2-(1-fluoro-cyclopropyl)-4-(2-methoxy-3′,4′,5′,6′-tetrahydro-2′H-[3,4′]bipyridinyl-1′-yl)-quinazolin-6-yl]-methyl-amino}-ethanol] | 0.5 to 2
16 | COc1cccnc1N1CCN(c2nc(C3(F)CC3)nc3c(F)cc(N(C)CCO)cc23)CC1 [Example 215, 2-({8-Fluoro-2-(1-fluoro-cyclopropyl)-4-[4-(3-methoxy-pyridin-2-yl)-piperazin-1-yl]-quinazolin-6-yl}-methyl-amino)-ethanol] | 0.5 to 2
17 | COc1cccnc1C1CCN(c2nc(C3(F)CC3)nc3c(F)cc(N(C)CCO)cc23)CC1 [Example 216, 2-{[8-Fluoro-2-(1-fluoro-cyclopropyl)-4-(3-methoxy-3′,4′,5′,6′-tetrahydro-2′H-[2,4′]bipyridinyl-1′-yl)-quinazolin-6-yl]-methyl-amino}-ethanol] | 2 to 10
18 | COc1cncnc1C1CCN(c2nc(C3(F)CC3)nc3c(F)cc(N(C)CCO)cc23)CC1 [Example 217, 2-({8-Fluoro-2-(1-fluoro-cyclopropyl)-4-[4-(5-methoxy-pyrimidin-4-yl)-piperidin-1-yl]-quinazolin-6-yl}-methyl-amino)-ethanol] | > 10
19 | COc1cc(I)ccc1C1CCN(c2nc(C3(F)CC3)nc3ccc(N(C)CCO)cc23)CC1 [Example 218] | > 10
20 | COc1nccnc1C1CCN(c2nc(C3(CF)CC3)nc3ccc(N(C)CCO)cc23)CC1 [Example 219, 2-({2-(1-Fluoromethyl-cyclopropyl)-4-[4-(3-methoxy-pyrazin-2-yl)-piperidin-1-yl]-quinazolin-6-yl}-methyl-amino)-ethanol] | 0.5 to 2
21 | COc1nccnc1C1CCN(c2nc(C3(O)CCC3)nc3ccc(N(C)CCO)cc23)CC1 [Example 221, 1-(6-((2-hydroxyethyl)(methyl)amino)-4-(4-(3-methoxypyrazin-2-yl)piperidin-1-yl)quinazolin-2-yl)cyclobutanol] | > 10
22 | CN(CCOCCF)c1ccc2nc(C3(F)CC3)nc(N3CCC(c4ccccc4OCCF)CC3)c2c1 [Example 222, (2-(1-Fluoro-cyclopropyl)-4-{4-[2-(2-fluoro-ethoxy)-phenyl]-piperidin-1-yl}-quinazolin-6-yl)-[2-(2-fluoro-ethoxy)-ethyl]-methyl-amine] | 2 to 10
23 | COc1ccccc1C1CCN(c2nc(C3(F)CC3)nc3ccc(N(C)CCOCCF)cc23)CC1 [Example 223, {2-(1-Fluoro-cyclopropyl)-4-[4-(2-methoxy-phenyl)-piperidin-1-yl]-quinazolin-6-yl}-[2-(2-fluoro-ethoxy)-ethyl]-methyl-amine] | 0.5 to 2
24 | CN(CCO[Si](C)(C)C(C)(C)C)c1ccc2nc(C3(F)CC3)nc(N3CCC(c4ccccc4O)CC3)c2c1 [Example 224, 2-{1-[6-{[2-(tert-Butyl-dimethyl-silanyloxy)-ethyl]-methyl-amino}-2-(1-fluoro-cyclopropyl)-quinazolin-4-yl]-piperidin-4-yl}-phenol] | 2 to 10
25 | CN(CCO)c1ccc2nc(C3(F)CC3)nc(N3CCC(c4ccccc4OCCF)CC3)c2c1 [Example 225, 2-[(2-(1-Fluoro-cyclopropyl)-4-{4-[2-(2-fluoro-ethoxy)-phenyl]-piperidin-1-yl}-quinazolin-6-yl)-methyl-amino]-ethanol] | 0.5 to 2
